Measurements from patent US20120156185A1, “NUTRITIONAL COMPOSITIONS COMPRISING CITRUS FIBERS” (HERBAMED LTD., priority 2009, published 2012).
“And” between values parts separate entries of the source, which are not always exact repeats. Identical values can stand only once.

Assay: Oxygen radical absorbance capacity (ORAC) assay
Description: ORAC assay for fresh orange crush and dry flake extracts was carried out following the modified procedure of the method previously described by Prior et al (Prior R L. et al. 2003. J Agric Food Chem 5, 3273-3279). This assay measures the ability of antioxidant components in test materials to inhibit the decline in disodium fluorescein (FL) fluorescence that is induced by the peroxyl radical generator 2′,2′-Azobis (2-amidinopropane) dihydrochloride (AAPH). The reaction was obtained on fluorescent plate reader (Synergy HT, Bio-Tek Instruments, Winooski, Vt., USA). The mixture contained in the final assay mixture 200 μL of total volume, FL, 120 μL, […] and AAPH, 60 μL 32 mM final concentration. All reagents were prepared with 75 mM phosphate buffer, pH 7.4. FL, phosphate buffer and samples were pre-incubated at 37° C. for 15 min. The reaction was started by the addition of AAPH. Fluorescence was measured and recorded every 1.5 min at excitation length of 485 nm and emission length of 535 nm, until the fluorescence of the last reading declined to a value of less than or equal to 5% of the first reading. Phosphate buffer was used as a blank and 2.5-40 μM trolox were used as positive control standards. The final ORAC values were calculated by using a regression equation between the trolox concentration and the net area under the FL decay curve and were expressed as trolox equivalents (TE) as μmole per 100 g of fresh weight (FW) or dry weight (DW).
In both compounds the measured inhibition time was directly proportional to the concentration of the antioxidant. In the tasted concentration range 2.5, 5.0, 10.0 μM of trolox the Tinh were 14.6, 20.9, and 25.5 respectively. For comparison Tinh for 2.5, 5.0, 10.0 μM of hesperidin were 26.8, 45.0 and 62.5 min respectively. […] In ORAC assay Tinh measures the ability of antioxidant components in test materials to inhibit the decline in disodium fluorescein (FL) fluorescence that is induced by the peroxyl radical generator 2′,2′-Azobis (2-amidinopropane) dihydrochloride (AAPH). Tinh for 10 μM of hesperidin and 10 μM of trolox were 62.5 and 23.5 min respectively. […] Higher correlation was observed between Hesperidin concentration and its antioxidant capacity.

SMILES	Tinh (inhibition time, antioxidant capacity) (2.5 μM) [min]	Tinh (inhibition time, antioxidant capacity) (5.0 μM) [min]	Tinh (inhibition time, antioxidant capacity) (10 μM)
COc1ccc([C@@H]2CC(=O)c3c(O)cc(O[C@@H]4O[C@H](CO[C@@H]5O[C@@H](C)[C@H](O)[C@@H](O)[C@H]5O)[C@@H](O)[C@H](O)[C@H]4O)cc3O2)cc1O [hesperidin]	26.8	45.0	62.5 min
Cc1c(C)c2c(c(C)c1O)CCC(C)(C(=O)O)O2 (stereo not drawn) [trolox, 6-hydroxy-2,5,7,8,-tetramethylchroman-2-carboxylic acid]	14.6	20.9	25.5 min and 23.5 min
